# Measured values taken from paper PMC7170716 (Nature, 2020).
# Assays:
# [1] = biological target: T1, M. thermoresistibile IrtAB (full-length) (Mycolicibacterium thermoresistibile, UniProt G7CBF5+G7CBF6); experiment: ATPase stimulation in nanodiscs, malachite green; type: biochemical; settings: 2.5 mM ATP, 10 mM MgSO4, 37 °C, acyl chain length not defined
# T1 sequence (G7CBF5 1-908): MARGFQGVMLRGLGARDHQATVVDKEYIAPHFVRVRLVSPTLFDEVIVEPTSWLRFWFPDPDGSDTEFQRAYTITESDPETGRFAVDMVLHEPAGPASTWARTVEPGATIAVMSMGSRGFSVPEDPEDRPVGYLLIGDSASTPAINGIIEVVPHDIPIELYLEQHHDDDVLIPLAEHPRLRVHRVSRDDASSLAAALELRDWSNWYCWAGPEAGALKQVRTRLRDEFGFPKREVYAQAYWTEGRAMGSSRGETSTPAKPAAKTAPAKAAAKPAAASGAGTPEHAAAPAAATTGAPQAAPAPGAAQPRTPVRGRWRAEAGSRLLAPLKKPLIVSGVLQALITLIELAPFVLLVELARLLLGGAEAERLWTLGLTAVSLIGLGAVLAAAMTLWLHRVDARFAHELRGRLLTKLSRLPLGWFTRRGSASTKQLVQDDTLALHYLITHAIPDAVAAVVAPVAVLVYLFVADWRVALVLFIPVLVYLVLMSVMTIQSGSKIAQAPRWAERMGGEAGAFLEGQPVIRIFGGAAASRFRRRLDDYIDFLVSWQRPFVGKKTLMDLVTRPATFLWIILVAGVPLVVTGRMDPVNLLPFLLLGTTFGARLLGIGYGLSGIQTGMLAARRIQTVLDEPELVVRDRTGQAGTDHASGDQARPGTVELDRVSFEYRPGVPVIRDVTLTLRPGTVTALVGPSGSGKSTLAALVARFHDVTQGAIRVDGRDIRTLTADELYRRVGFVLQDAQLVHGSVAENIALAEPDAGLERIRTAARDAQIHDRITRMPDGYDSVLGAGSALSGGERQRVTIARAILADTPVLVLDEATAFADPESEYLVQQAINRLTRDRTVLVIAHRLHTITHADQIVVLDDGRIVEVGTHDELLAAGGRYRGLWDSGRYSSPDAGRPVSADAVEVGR
# T1 sequence (G7CBF6 1-579): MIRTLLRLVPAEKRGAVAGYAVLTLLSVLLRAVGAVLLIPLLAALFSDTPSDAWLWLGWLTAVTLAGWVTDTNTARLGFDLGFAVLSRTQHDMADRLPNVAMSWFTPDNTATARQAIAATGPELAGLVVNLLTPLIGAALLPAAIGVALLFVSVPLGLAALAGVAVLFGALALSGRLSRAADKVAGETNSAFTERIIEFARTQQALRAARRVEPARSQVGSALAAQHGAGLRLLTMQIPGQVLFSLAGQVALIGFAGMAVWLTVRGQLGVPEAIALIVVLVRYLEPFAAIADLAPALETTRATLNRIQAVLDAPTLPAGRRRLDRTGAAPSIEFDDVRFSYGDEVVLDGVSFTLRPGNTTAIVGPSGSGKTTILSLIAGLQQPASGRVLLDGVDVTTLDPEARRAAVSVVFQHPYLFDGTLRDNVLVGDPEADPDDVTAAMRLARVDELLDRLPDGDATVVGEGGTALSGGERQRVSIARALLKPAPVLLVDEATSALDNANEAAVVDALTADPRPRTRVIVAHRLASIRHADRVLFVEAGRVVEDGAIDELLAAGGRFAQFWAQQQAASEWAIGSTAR
# M. smegmatis SID = biological target: T2, M. smegmatis SID (Mycolicibacterium smegmatis, UniProt A0R6H8); experiment: SPR, biotinylated SID on chip, equilibrium fit; type: binding; settings: HPLC-purified Fe-cMBT (MW 799 Da), 0-100 μM; single experiment
# T2 sequence (A0R6H8 1-250 limits assumed): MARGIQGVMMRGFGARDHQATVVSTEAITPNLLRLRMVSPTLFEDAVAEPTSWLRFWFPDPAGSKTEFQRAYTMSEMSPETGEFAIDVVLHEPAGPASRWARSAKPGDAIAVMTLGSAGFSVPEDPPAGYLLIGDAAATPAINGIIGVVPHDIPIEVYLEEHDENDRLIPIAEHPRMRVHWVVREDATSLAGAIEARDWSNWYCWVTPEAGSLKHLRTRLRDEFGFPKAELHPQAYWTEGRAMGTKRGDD
fold ATPase stimulation ([1]; Fe-cMBT 0.5-40 μM),Kd (M. smegmatis SID),fold ATPase stimulation ([1]; Fe-MBT 0.5-40 μM),Substance
> 10 fold,> 200 µM,,Fe-cMBT
,,> 38 fold,Fe-MBT
